Data reported in patent publication US8734775B2, “Chemokine derived peptides that bind with chemokine receptor CXCR3 and uses for chronic wound and angiogenesis inhibition treatments” (University of Pittsburgh, priority 2011, dated 2014).

Columns and labels:
[1] = test system: HMEC-1 cells transfected with CXCR3 siRNA; assay: Scratch assay in cells transfected with CXCR3 siRNA; format: cell-based, human; details: CXCR3 knockdown; procedure of Experiment 2
Experimental: In the various experiments described below, to the extent not otherwise noted, CXCR3 siRNA transfection was preformed according to the procedure as previously described by Koh et al. (“Methods in Enzymology,” 2008, vol 443, p. 84), and summarized briefly as follows. HMEC-1 cells were plated in 6 well tissue culture plate at 4.0×10^5 cells/well in complete MCDB131 media and incubated overnight. The cells were ˜75% confluent. The media was removed and replaced with serum free Opti-Mem and incubated for 30 minutes. Dharmafect #4 was added to Opti-Mem to a final concentration of 2.5% (final volume […]) then incubated for 5 minutes at room temp. In parallel, CXCR3 siRNA was diluted in Opti-Mem to a final concentration of […] then incubated for 5 minutes at room temp. CXCR3 siRNA was a pool of equal concentration from Sigma and Santa Cruz. The Dharmafect solution was added to the CXCR3 siRNA pool and incubated for 20 minutes at room temp. […]
To determine whether IP-10dp inhibits endothelial cell motility, a conventional “scratch assay” was performed. […] Images were taken at time zero and 24 hours, and the relative distance traveled by the cells into the a cellular area was determined using MetaMorph. The HMEC-1 culture images were analyzed for the ability of the cells to migrate into a denuded area over a 24 hour period in the presence or absence of VEGF165. […]

[2] = test system: cAMP production in HMEC-1 cells; assay: cAMP enzyme immunoassay in endothelial cells; format: cell-based, human
Experimental: Thus, an experiment was conducted to determine if stimulation of endothelial cells with IP-10dp would induce an increase in cAMP. HMEC-1 cells were plated in 10 mm culture dishes and grown to confluency in complete growth media. The cells were then incubated in serum-reduced media (0.5% dialyzed FBS for HMEC-1 cells) for 24 hours at 37° C. The cells were then washed once with PBS and incubated in serum-free media. The cells were then stimulated with forskolin ([…]), VEGF (100 ng/ml), IP-10 (200 ng/ml), IP-10dp (10 μM) alone or in various combinations. The media was removed and ice cold 80% ethanol was added and the cells incubated on ice for 15 minutes. The extracts were evaluated and quantified for total cAMP production by using a cAMP enzyme immunoassay kit provided by Sigma-Aldrich Corp., of St. Louis, Mo., according to the manufacturer's protocol.

[3] = test system: VEGF-induced new vessel formation; assay: In vivo Matrigel plug assay, vessel development; set-up: species or system C57Bl/6 mice; details: mice, day 10
Experimental: To determine whether IP-10dp is able to inhibit vessel growth, an in vivo Matrigel assay was used to establish that IP-10dp is able to inhibit angiogenesis. Vessel development and regression in vivo was determined generally according to the method previously described by Bodnar et al. (see Bodnar et al., 2006, supra). In brief, for vessel development GFR Matrigel supplemented with VEGF165 in the absence or presence of IP-10 or IP-10dp was injected into the groin area of the mice. Ten days post inoculation; the Matrigel plug was removed and stained with Masson Trichrome to visualize endothelial infiltration.
Specifically, Matrigel with VEGF was injected into the groin area near the dorsal midline of 12-month-old C57Bl/6 female mice. In addition to Matrigel plus VEGF, the mice were injected with saline (control), 10 μg of IP-10 or 100 μg of IP-10dp. Two injections were made in each mouse in separate dorsal areas, one control injection and the other with the designated experimental treatment. On day 10, the Matrigel plugs were removed and either paraffin embedded or flash frozen. They were prepared and examined histologically for new vessel development using Masson's trichrome staining. […] This particular result is taken as being indicative that IP-10dp has the ability to inhibit VEGF-induced new vessel formation.

## PESKAIKNLLKAVSKEMSKRSP (IP-10dp; listed as Homo sapiens) [synthetic fragment of IP-10 comprising residues 78-98, the C-terminal α-helical domain]
[1]
  inhibition of VEGF-induced motility in CXCR3 siRNA-transfected cells: unable to inhibit VEGF-induced motility
[2]; IP-10dp 10 μM
  increase in cAMP production compared to control and VEGF treated cells: 2-3 fold
[2]; VEGF 100 ng/ml plus IP-10dp 10 μM
  cAMP production with VEGF plus IP-10dp compared to VEGF alone: significant increase in cAMP production
[3]; 10 μg IP-10 or 100 μg IP-10dp with Matrigel plus VEGF, Masson's trichrome
  inhibition of VEGF-induced angiogenesis in Matrigel plug: inhibited this angiogenesis
[3]; 100 μg IP-10dp vs 10 μg IP-10
  inhibition of VEGF-induced new vessel formation compared with IP-10: more effective than IP-10
